Data: PubChem BioAssay (NCI)
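Five concentrations, 48 hours, 96-well plates. Abbreviation: GI50, concentration required for 50% inhibition of growth. TGI is the concentration that stops growth completely.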

Columns and labels:
Experiment in all cases: inhibition of tumour cell growth, NCI panel, 48 h
[1] = tested on: SF-295 CNS
[2] = tested on: OVCAR-8 ovarian
[3] = tested on: OVCAR-3 ovarian
[4] = tested on: SR leukemia
[5] = tested on: BT-549 breast
[6] = tested on: CAKI-1 renal
[7] = tested on: SNB-75 CNS
[8] = tested on: HCT-15 colon
[9] = tested on: A549 NSCLC
[10] = tested on: M14 melanoma
[11] = tested on: MCF7 breast
[12] = tested on: MDA-MB-435
[13] = tested on: NCI-H226 lung
[14] = tested on: HCC-2998 colon
[15] = tested on: SF-268 CNS
[16] = tested on: HS 578T breast
[17] = tested on: SNB-19 CNS
[18] = tested on: OVCAR-5 ovarian
[19] = tested on: U251 CNS
[20] = tested on: NCI-H23 lung
[21] = tested on: NCI-H460 lung
[22] = tested on: KM12 colon
[23] = tested on: MALME-3M melanoma
[24] = tested on: RPMI-8226 leukemia
[25] = tested on: UACC-257 melanoma
[26] = tested on: HOP-92 NSCLC
[27] = tested on: A498 renal
[28] = tested on: SK-MEL-5 melanoma
[29] = tested on: NCI-H522 lung
[30] = tested on: SK-MEL-28 melanoma
[31] = tested on: NCI/ADR-RES ovarian
[32] = tested on: TK-10 renal
[33] = tested on: T-47D breast
[34] = tested on: 786-0 renal
[35] = tested on: HCT-116 colon
[36] = tested on: K-562 leukemia
[37] = tested on: HOP-62 NSCLC
[38] = tested on: COLO 205 colon
[39] = tested on: SF-539 CNS
[40] = tested on: SW-620 colon
[41] = tested on: SK-MEL-2 melanoma
[42] = tested on: MDA-MB-231 breast
[43] = tested on: SK-OV-3 ovarian
[44] = tested on: ACHN renal
[45] = tested on: UO-31 renal
[46] = tested on: IGROV1 ovarian
[47] = tested on: DU-145 prostate
[48] = tested on: RXF 393 renal
[49] = tested on: HT29 colon
[50] = tested on: PC-3 prostate
[51] = tested on: SN12C renal
[52] = tested on: UACC-62 melanoma
[53] = tested on: HL-60(TB) leukemia
[54] = tested on: LOX IMVI melanoma
[55] = tested on: OVCAR-4 ovarian
[56] = tested on: MOLT-4 leukemia
[57] = tested on: CCRF-CEM leukemia

## COc1cc(/C=C\c2cc(OC)c(OC)c(OC)c2)cc(N/C=C\C(=O)c2c[nH]c3ccccc23)c1OC
[1]
  GI50: 7.94 µM
  TGI: 22.9 µM
[2]
  GI50: 3.33 µM
  TGI: 13.3 µM
[3]
  GI50: 1.72 µM
  TGI: 3.21 µM
[4]
  GI50: 0.469 µM
  TGI: 3.38 µM
[5]
  GI50: 1.64 µM
  TGI: 3.38 µM
[6]
  GI50: 1.58 µM
  TGI: 2.95 µM
[7]
  GI50: 1.47 µM
  TGI: 2.92 µM
[8]
  GI50: 2.32 µM
  TGI: 5.63 µM
[9]
  GI50: 14.5 µM
  TGI: 34.8 µM
[10]
  GI50: 2.87 µM
  TGI: 12.6 µM
[11]
  GI50: 0.72 µM
  TGI: 3.15 µM
[12]
  GI50: 2.43 µM
  TGI: 8.04 µM
[13]
  GI50: 7.28 µM
  TGI: 27.7 µM
[14]
  GI50: 3.34 µM
  TGI: 10.5 µM
[15]
  GI50: 3.57 µM
  TGI: 15.6 µM
[16]
  GI50: 2.21 µM
  TGI: 12.9 µM
[17]
  GI50: 3.92 µM
  TGI: 24.4 µM
[18]
  GI50: 2.45 µM
  TGI: 7.03 µM
[19]
  GI50: 3.84 µM
  TGI: 15.7 µM
[20]
  GI50: 3.75 µM
  TGI: 16.2 µM
[21]
  GI50: 5.6 µM
  TGI: 27.1 µM
[22]
  GI50: 3.69 µM
  TGI: 14.1 µM
[23]
  GI50: 1.27 µM
  TGI: 3.18 µM
[24]
  GI50: 0.627 µM
  TGI: 2.93 µM
[25]
  GI50: 3.17 µM
  TGI: 10.8 µM
[26]
  GI50: 1.5 µM
  TGI: 4.5 µM
[27]
  GI50: 1.32 µM
  TGI: 12 µM
[28]
  GI50: 3.14 µM
  TGI: 12.6 µM
[29]
  GI50: 1.76 µM
  TGI: 3.7 µM
[30]
  GI50: 1.86 µM
  TGI: 3.79 µM
[31]
  GI50: 3.48 µM
  TGI: 19.3 µM
[32]
  GI50: 1.86 µM
  TGI: 3.54 µM
[33]
  GI50: 1.55 µM
  TGI: 4.51 µM
[34]
  GI50: 2.04 µM
  TGI: 4.14 µM
[35]
  GI50: 1.76 µM
  TGI: 3.49 µM
[36]
  GI50: 1.54 µM
  TGI: > 100 µM
[37]
  GI50: 11.6 µM
  TGI: 28.1 µM
[38]
  GI50: 1.51 µM
  TGI: 3.2 µM
[39]
  GI50: 1.7 µM
  TGI: 3.19 µM
[40]
  GI50: 1.63 µM
  TGI: 3.31 µM
[41]
  GI50: 2.21 µM
  TGI: 4.68 µM
[42]
  GI50: 1.73 µM
  TGI: 4.11 µM
[43]
  GI50: 12.3 µM
  TGI: 27 µM
[44]
  GI50: 1.75 µM
  TGI: 3.39 µM
[45]
  GI50: 0.326 µM
  TGI: 2.05 µM
[46]
  GI50: 1.23 µM
  TGI: 3.56 µM
[47]
  GI50: 2.06 µM
  TGI: 4.08 µM
[48]
  GI50: 1.69 µM
  TGI: 3.38 µM
[49]
  GI50: 2.28 µM
  TGI: 5.14 µM
[50]
  GI50: 3.44 µM
  TGI: 18.6 µM
[51]
  GI50: 2.44 µM
  TGI: 7.13 µM
[52]
  GI50: 1.39 µM
  TGI: 3.33 µM

## Cc1cc(N/N=C/c2ccccn2)nc2ccccc12
[1]
  GI50: 0.307 µM
  TGI: 3.2 µM
[2]
  GI50: 0.381 µM
  TGI: 16.6 µM
[3]
  GI50: 0.382 µM
  TGI: 11 µM
[4]
  GI50: 0.308 µM
  TGI: 5 µM
[5]
  GI50: 0.85 µM
  TGI: 20.3 µM
[6]
  GI50: 0.313 µM
  TGI: 2.59 µM
[7]
  GI50: 0.461 µM
  TGI: 15.2 µM
[8]
  GI50: 0.336 µM
  TGI: 16.3 µM
[9]
  GI50: 0.361 µM
  TGI: 12.3 µM
[10]
  GI50: 0.413 µM
  TGI: 5.62 µM
[53]
  GI50: 0.295 µM
  TGI: 0.804 µM
[11]
  GI50: 0.316 µM
  TGI: 8.94 µM
[54]
  GI50: 0.413 µM
  TGI: 10.9 µM
[12]
  GI50: 0.679 µM
  TGI: 15.9 µM
[13]
  GI50: 0.286 µM
  TGI: 4.93 µM
[14]
  GI50: 0.462 µM
  TGI: 16.1 µM
[15]
  GI50: 0.44 µM
  TGI: 15.3 µM
[16]
  GI50: 8.2 µM
  TGI: 34.5 µM
[17]
  GI50: 0.535 µM
  TGI: 26.3 µM
[18]
  GI50: 0.542 µM
  TGI: 18.5 µM
[19]
  GI50: 0.378 µM
  TGI: 10.5 µM
[20]
  GI50: 0.831 µM
  TGI: 22.2 µM
[21]
  GI50: 0.349 µM
  TGI: 11.6 µM
[22]
  GI50: 0.508 µM
  TGI: 14.9 µM
[23]
  GI50: 0.842 µM
  TGI: 10.2 µM
[24]
  GI50: 0.41 µM
  TGI: 12.5 µM
[55]
  GI50: 0.166 µM
  TGI: 7.2 µM
[25]
  GI50: 0.395 µM
  TGI: 5.02 µM
[27]
  GI50: 0.633 µM
  TGI: 7.05 µM
[28]
  GI50: 0.302 µM
  TGI: 6.24 µM
[29]
  GI50: 0.359 µM
  TGI: 4.81 µM
[30]
  GI50: 0.895 µM
  TGI: 16.8 µM
[31]
  GI50: 0.393 µM
  TGI: 21.7 µM
[32]
  GI50: 0.674 µM
  TGI: 20.6 µM
[33]
  GI50: 0.376 µM
  TGI: 15.9 µM
[34]
  GI50: 0.384 µM
  TGI: 12.4 µM
[35]
  GI50: 0.393 µM
  TGI: 5.81 µM
[56]
  GI50: 0.352 µM
  TGI: 4.98 µM
[36]
  GI50: 0.422 µM
  TGI: 7.55 µM
[37]
  GI50: 0.331 µM
  TGI: 5.06 µM
[38]
  GI50: 0.367 µM
  TGI: 12.4 µM
[39]
  GI50: 0.289 µM
  TGI: 1.04 µM
[40]
  GI50: 0.588 µM
  TGI: 19.6 µM
[41]
  GI50: 4.89 µM
  TGI: 19.6 µM
[42]
  GI50: 0.469 µM
  TGI: 14.3 µM
[57]
  GI50: 0.25 µM
  TGI: 1.77 µM
[43]
  GI50: 0.668 µM
  TGI: 16 µM
[44]
  GI50: 0.347 µM
  TGI: 11.1 µM
[45]
  GI50: 0.286 µM
  TGI: 2.29 µM
[46]
  GI50: 0.356 µM
  TGI: 3.95 µM
[47]
  GI50: 0.46 µM
  TGI: 14.3 µM
[48]
  GI50: 0.321 µM
  TGI: 4.87 µM
[49]
  GI50: 0.605 µM
  TGI: 13.1 µM
[50]
  GI50: 0.486 µM
  TGI: 19.2 µM
[51]
  GI50: 0.368 µM
  TGI: 17.3 µM
[52]
  GI50: 0.406 µM
  TGI: 3.36 µM
